Data: patent US12605382B2, “Pharmaceutical composition for preventing, alleviating, or treating cancer containing 2,6-dichloro-4-(4-(4-hydroxycyclohexylamino)-7H- pyrrolo[2,3-d]pyrimidin-5-yl)phenol as active ingredient” (JBKLAB CO., LTD., priority 2021, dated 2026)

Columns and labels:
[1] = system: M2 TAM; test: Flow cytometric analysis (FACS) of tumor tissue, 4T1 allograft model; assay type: in vivo, BALB/c mice
Experimental: The tumor tissues from each mouse were subjected to single cell isolation, followed by flow cytometric analysis (FACS) to confirm the immunomodulatory effect.
Specifically, the spleen and tumor of the mouse were extracted 31 days after tumor cell injection in the same manner as in Example 8. After the tumor tissue was excised, it was mechanically processed by fine chopping using a sterilized razor blade, and then treated with DNase (0.1 mg/ml) and collagenase (1 mg/ml), respectively, and reacted at 36° C. for 30 minutes to obtain a single cell suspension. To analyze infiltrating leukocytes after isolation of single cells from the tumor tissue, […] cells per FACS tube were stained with FITC, PE, PerCP/Cy5.5, and APC fluorescence using CD3 antibody, CD8b antibody, CD4 antibody, CD11b antibody, F4/80 antibody, and CD206 antibody. For each stained sample, the fraction of CD8+ cytotoxic T cells was calculated using BD Bioscience FACSCalibur machines. Analysis of the FACS results was performed using FlowJo software, version 10.

[2] = system: BRD4; test: Western blotting of tumor tissue from MDA-MB-231 tumor-bearing mice; assay type: in vivo, BALB/c-nude mice; conditions: 5, 10 and 20 mg/kg (T4, T5, T6), once by intravenous injection
Experimental: (§1) An experiment was performed to confirm the inhibitory effect of the compound of Example 1, the active ingredient of the pharmaceutical composition of the present invention, on the expression of major proteins on cancer cell growth through Western blotting.
(§2) Specifically, MDA-MB-231 cells, a TNBC cell line, were cultured in a 37° C., 5% CO2 incubator, and the medium used for cell culture was RPMI-1640 supplemented with 10% FBS. Tumors were induced by subcutaneously injecting 5×10^6/head/100 μl of MDA-MB-231 cells into the right neck of BALB/c-nude mice (5 mice each in control and administration groups), and the experiment was performed when the tumor size reached 200 mm^3. The compound of Example 1, the active ingredient of the pharmaceutical composition of the present invention, was administered once by intravenous injection at concentrations of 5, 10, and 20 mg/kg (T4, T5, and T6) and then euthanized using CO2, and the resulting tumor tissues from the control and administration groups were taken and subjected to Western blotting. Proteins were isolated from the tumor tissues and the results of Western blotting were confirmed using BRD4, c-myc, PD-L1, and Actin antibodies, respectively.

[3] = system: PD-L1; test: as above; assay type: in vivo, BALB/c-nude mice; conditions: 5, 10 and 20 mg/kg (T4, T5, T6), once by intravenous injection
Experimental: as §1, §2

[4] = system: c-myc; test: as above; assay type: in vivo, BALB/c-nude mice; conditions: 5, 10 and 20 mg/kg (T4, T5, T6), once by intravenous injection
Experimental: as §1, §2

[5] = system: HepG2; test: Clonogenic assay; assay type: cell-based; conditions: 2.5 and 5 μM, 10 days
Experimental: (§3) HepG2 and Hep3B were each seeded in 12-well plates at the density of 3×10^3 cells/well and cultured for 24 hours. Then, Sorafenib and the compound of Example 1 were treated thereto at 2.5 and 5 μM each and cultured for 10 days. Upon completion of the culture, the cells were washed with PBS, fixed with 37% formaldehyde, and stained with 0.01% crystal violet. After staining, the cells were washed with distilled water and the colonies of stained cells were photographed.

[6] = system: Hep3B; test: Clonogenic assay; assay type: cell-based; conditions: 2.5 and 5 μM, 10 days
Experimental: as §3

[7] = system: CD68+ macrophages; test: Immunocytochemistry (IHC) analysis of tumor tissue, 4T1 allograft model; assay type: in vivo, BALB/c mice
Description: (§4) In order to evaluate changes in the expression of proteins such as BRD4 and HIF-1α, the tumor cells isolated in Example 10 were subjected to immunocytochemistry (IHC) analysis to evaluate the changes in protein expression in the tumor microenvironment according to the treatment method.
(§5) Specifically, tumor tissue was extracted, fixed in 4% paraformaldehyde, and embedded in paraffin to create blocks. The paraffin block containing the tissue was sliced transversely to a thickness of 4 μm and attached to a slide. Paraffin was removed from the tissue attached to the slide using xylene and ethanol, and endogenous peroxidase was removed from the tissue by immersing the slide in a solution of 3% H2O2 in methanol for 10 minutes at room temperature. Then, for antigen retrieval, the slide was placed in 0.01 M sodium citrate buffer (pH 6.0) and boiled. In order to eliminate non-specific binding, FcR on the cell surface was blocked using 5% normal goat serum. Then, the slide was incubated overnight at 4° C. with primary antibodies (HIF-1a (SantaCruz, sc-13515), PD-L1 (Abcam, ab2025921), CD8 (Abcam, ab203035), and CD68 (CellSignaling, 97778)). Secondary antibodies were attached and color development was induced using ImmPRESSGoat Anti-Rat IgG (Mouse Adsorbed) Polymer kit (Vector Laboratories), Abcam (ab150165, ab150081), and REAL En Visiondetection system (Dako). The stained tissue was observed under an Axioskop40 optical microscope (Carl Zeiss) at 40× magnification, and the images were saved using AxioVision4.7 software. The expression level was measured through the area of the stained region in the photograph using Image J software (NIH, Bethesda). Average density values were calculated from at least three slides per sample.

[8] = system: Brd4; test: as above; assay type: in vivo, BALB/c mice
Description: as §4, §5

[9] = system: CD8+ T cells; test: as above; assay type: in vivo, BALB/c mice
Description: as §4, §5

[10] = system: PD-L1; test: as above; assay type: in vivo, BALB/c mice
Description: as §4, §5

[11] = system: HIF-1α; test: as above; assay type: in vivo, BALB/c mice
Description: as §4, §5

[12] = system: OVCAR-3; test: Cell viability alone and in combination with cisplatin; assay type: cell-based, Human
Experimental: (§6) Human ovarian cancer cell lines (SKOV-3 and OVCAR-3) were treated with control (no treatment), 0.1 μM of the compound of Example 1, 1 μM of cisplatin, and 0.1 μM of the compound of Example 1/1 μM of cisplatin, and the cell viability of SKOV-3 and OVCAR-3 was confirmed.

[13] = system: SKOV-3; test: as above; assay type: cell-based, Human
Experimental: as §6

[14] = system: HCT15; test: Cytotoxicity on cancer cell lines; assay type: cell-based; conditions: HCT15, dose dependently
Experimental: (§7) The cytotoxicity of the compound of Example 1 against various cancer cell lines was evaluated through a process similar to the evaluation of liver cancer cell line inhibition described above. Etoposide, sold as an anticancer agent, was used as a control group drug.

[15] = system: SK-OV-3; test: Cytotoxicity on cancer cell lines; assay type: cell-based; conditions: SK-OV-3, dose dependently
Experimental: as §7

[16] = system: A549; test: Cytotoxicity on cancer cell lines; assay type: cell-based; conditions: A549, dose dependently
Experimental: as §7

[17] = system: SK-MEL-2; test: Cytotoxicity on cancer cell lines; assay type: cell-based; conditions: SK-MEL-2, dose dependently
Experimental: as §7

[18] = 0.1 μM Example 1 combined with 1 μM cisplatin

With Oc1c(Cl)cc(-c2c[nH]c3ncnc(N[C@H]4CC[C@H](O)CC4)c23)cc1Cl [Example 1, (trans)-2,6-dichloro-4-(4-(4-hydroxycyclohexylamino)-7H-pyrrolo[2,3-d]pyrimidin-5-yl)phenol] the “M2 TAM” value ([1]; alone) was “significantly (P<0.01) decreased”, the “M2 TAM” value ([1]; combined with radiation) was “decrease” and the “expression of BRD4 in tumor tissue vs untreated negative control (NC)” value [2] was “reduced”. For the same compound, the “expression of PD-L1 in tumor tissue vs untreated negative control (NC)” value [3] was “reduced”, the “expression of c-myc in tumor tissue vs untreated negative control (NC)” value [4] was “reduced” and the “number of colonies, treated vs not treated” value [5] was “clear difference in the number of colonies”. The “number of colonies, treated vs not treated” value [6] was “clear difference in the number of colonies”, the “population of CD68+ macrophages in tumor tissue” value [7] was “significantly (P<0.01) reduced” and the “Brd4 expression in tumor tissue” value [8] was “significantly (P<0.001) reduced”. For the same compound, the “population of CD8+ T cells” value ([9]; alone) was “increased”, the “population of CD8+ T cells” value ([9]; combined with radiation) was “further increased (synergistic effect)” and the “expression of PD-L1” value [10] was “significantly (P<0.01) decreased”. For the same compound, the “HIF-1α expression in tumor tissue” value [11] was “significantly (P<0.05) reduced”, the cell viability [12, 18] was “further inhibited (synergistic effect)” and the cell viability ([12]; 0.1 μM alone) was “suppressed”. The cell viability [13, 18] was “further inhibited (synergistic effect)”, the cell viability ([13]; 0.1 μM alone) was “suppressed” and the “toxicity to cancer cell line” value [14] was “excellent toxicity”. For the same compound, the “toxicity to cancer cell line” value [15] was “excellent toxicity”, the “toxicity to cancer cell line” value [16] was “excellent toxicity” and the “toxicity to cancer cell line” value [17] was “excellent toxicity”.
